Experimental findings from patent US9370182B2, “Antimicrobial peptide and use thereof” (TOAGOSEI CO., LTD., priority 2012, dated 2016) are described below.

Where no end group is shown, it is not given here. Bounds are passed on as bounds.

What all share (assay type): cell-based
Experiment [1] concerns E. coli (NIH-JC2). Conditions: for Antimicrobial activities (MIC in μM) E. coli: NIH-JC2, 24 h. The procedure:
(§1) The two bacterial strains (S. aureus, E. coli) were subcultured from storage media to agar plate media (“Mueller Hinton Agar” available from DIFCO), then inoculated into liquid media (“Mueller Hinton broth II” available from DIFCO) and cultured at 30° C. or 37° C. for 24 hours. Subsequently, the aforementioned medium was added to the culture media to dilute and prepare inocula at bacterial concentrations of 2×10^5 cells/mL.
(§2) Antimicrobial activity tests were conducted as follows.
(§3) The peptide-containing solutions prepared to the respective concentrations were aliquoted into 96-well microplates at 20 μL per well. In test sections against the fungus, 80 μL of the MOPS-buffered RPMI1640 medium was added to each well. In test sections against the bacteria, 80 μL of the liquid medium (Mueller Hinton broth II) was added to each well.
(§4) Subsequently, 100 μL of one of the inocula was added to each well and incubation was started in an incubator at 30° C. or 37° C. After 24 hours, the multiplication (growth) of the microorganisms was analyzed by measurements of turbidity (OD600).

For experiment [2], the system named is S. aureus (209P). Conditions: for Antimicrobial activities (MIC in μM) S. aureus: 209P, 24 h. The procedure:
as §1, §2, §3, §4

Experiment [3] deals with C. albicans (NBRC-1594). Conditions: for Antimicrobial activities (MIC in μM) C. albicans: NBRC-1594, 24 h. The procedure: On the other hand, with respect to the one fungus strain (C. albicans), the surface of a slant culture was washed with a physiological saline containing 0.1% Tween® 80 to prepare a conidial suspension. The suspension was filtered with a Falcon® cell strainer and diluted with a MOPS-buffered RPMI1640 medium to prepare an inoculum at a fungus concentration of 2×10^4 cells/mL.
as §2, §3, §4

Setting [4] is: summary of Table 2, all microorganism strains.

As to MLPSLALLLLAAWTVRA [Sample 2], the “Antimicrobial activities (MIC in μM) E. coli” value in experiment [1] amounted to 32 µM. Moreover, the “Antimicrobial activities (MIC in μM) S. aureus” value in experiment [2] came out at 16 µM. In experiment [3], the “Antimicrobial activities (MIC in μM) C. albicans” value is 32 µM.

Turning to MLPGLALLLLAAWTARA [Sample 1], the “Antimicrobial activities (MIC in μM) E. coli” value in experiment [1] was 32 µM. In addition, the “Antimicrobial activities (MIC in μM) S. aureus” value in experiment [2] stood at 16 µM. In addition, in experiment [3], the “Antimicrobial activities (MIC in μM) C. albicans” value was 32 µM.

“MGPASPAARGLSRRPGQPPLPLLLPLLLLLLRAQPAIG [Sample 3]”: the “Antimicrobial activities (MIC in μM) E. coli” value in experiment [1] was 16 µM. Besides, the “Antimicrobial activities (MIC in μM) S. aureus” value in experiment [2] is 4 µM. For the same sequence, the “Antimicrobial activities (MIC in μM) C. albicans” value in experiment [3] came out at 16 µM.

Consider “MGPTSPAARGQGRRWRPPLPLLLPLSLLLLRAQLAVG [Sample 4]”, for which the “Antimicrobial activities (MIC in μM) E. coli” value in experiment [1] is 16 µM. Further, the “Antimicrobial activities (MIC in μM) S. aureus” value in experiment [2] came out at 4 µM. Moreover, the “Antimicrobial activities (MIC in μM) C. albicans” value in experiment [3] stood at 16 µM.

“MAATGTAAAAATGKLLVLLLLGLTAPAAA [Sample 6]”: the “Antimicrobial activities (MIC in μM) E. coli” value in experiment [1] stood at 16 µM. Further, in experiment [2], the “Antimicrobial activities (MIC in μM) S. aureus” value is 8 µM. In experiment [3], the “Antimicrobial activities (MIC in μM) C. albicans” value turned out to be 16 µM.

As for “MAATGTAAAAATGRLLLLLLVGLTAPALA [Sample 5]”, in experiment [1], the “Antimicrobial activities (MIC in μM) E. coli” value was 16 µM. The “Antimicrobial activities (MIC in μM) S. aureus” value in experiment [2] amounted to 8 µM. The “Antimicrobial activities (MIC in μM) C. albicans” value in experiment [3] turned out to be 16 µM.

“TLHQQCIRVLKNNID [Sample 7, reference compound]”: the “Antimicrobial activities (MIC in μM) E. coli” value in experiment [1] was >256 µM. Moreover, in experiment [1] (setting [4]), the “Antimicrobial activity in words, E. coli” value is recorded as “no antimicrobial activities were observed”. Further, in experiment [2], the “Antimicrobial activities (MIC in μM) S. aureus” value is >256 µM. Besides, the “Antimicrobial activity in words, S. aureus” value in experiment [2] (setting [4]) is recorded as “no antimicrobial activities were observed”. In addition, the “Antimicrobial activities (MIC in μM) C. albicans” value in experiment [3] is >256 µM. Also, in experiment [3] (setting [4]), the “Antimicrobial activity in words, C. albicans” value was “no antimicrobial activities were observed”.
